From patent US10759813B2, “Neprilysin inhibitors” (THERAVANCE BIOPHARMA R&D IP, LLC, priority 2010, dated 2020)

target: human neprilysin (EC 3.4.24.11; NEP) (Homo sapiens (Human), UniProt P08473); assay: In vitro enzyme inhibition assay at human NEP (fluorogenic peptide substrate); type: biochemical; settings: pKi values at human NEP, recombinant human NEP
Experimental: In Vitro Assays for the Quantitation of Inhibitor Potencies at Human and Rat NEP, and Human ACE
The inhibitory activities of compounds at human and rat neprilysin (EC 3.4.24.11; NEP) and human angiotensin converting enzyme (ACE) were determined using in vitro assays as described below.
Recombinant human NEP and recombinant human ACE were obtained commercially (R&D Systems, Minneapolis, Minn., catalog numbers 1182-ZN and 929-ZN, respectively). The fluorogenic peptide substrate Mca-D-Arg-Arg-Leu-Dap-(Dnp)-OH (Medeiros et al. (1997) Braz. J. Med. Biol. Res. 30:1157-62; Anaspec, San Jose, Calif.) and Abz-Phe-Arg-Lys(Dnp)-Pro-OH (Araujo et al. (2000) Biochemistry 39:8519-8525; Bachem, Torrance, Calif.) were used in the NEP and ACE assays respectively.
The assays were performed in 384-well white opaque plates at 37° C. using the fluorogenic peptide substrates at a concentration of 10 μM in Assay Buffer (NEP: 50 mM HEPES, pH 7.5, 100 mM NaCl, 0.01% polyethylene glycol sorbitan monolaurate (Tween-20), 10 μM ZnSO4; ACE: 50 mM HEPES, pH 7.5, 100 mM NaCl, 0.01% Tween-20, 1 μM ZnSO4).
Test compounds were assayed over the range of concentrations from 10 μM to pM. Test compounds were added to the enzymes and incubated for 30 minute at 37° C. prior to initiating the reaction by the addition of substrate. Reactions were terminated after 20 minutes of incubation at 37° C. by the addition of glacial acetic acid to a final concentration of 3.6% (v/v).
Plates were read on a fluorometer with excitation and emission wavelengths set to 320 nm and 405 nm, respectively. Inhibition constants were obtained by nonlinear regression of the data using the equation (GraphPad Software, Inc., San Diego, Calif.): v=v0/[1+(I/K′)] where v is the reaction rate, v0 is the uninhibited reaction rate, I is the inhibitor concentration and K′ is the apparent inhibition constant.
Compounds of the invention were tested in this assay and found to have pKi values at human NEP as follows.

human neprilysin (EC 3.4.24.11; NEP), sequence (P08473 52-750): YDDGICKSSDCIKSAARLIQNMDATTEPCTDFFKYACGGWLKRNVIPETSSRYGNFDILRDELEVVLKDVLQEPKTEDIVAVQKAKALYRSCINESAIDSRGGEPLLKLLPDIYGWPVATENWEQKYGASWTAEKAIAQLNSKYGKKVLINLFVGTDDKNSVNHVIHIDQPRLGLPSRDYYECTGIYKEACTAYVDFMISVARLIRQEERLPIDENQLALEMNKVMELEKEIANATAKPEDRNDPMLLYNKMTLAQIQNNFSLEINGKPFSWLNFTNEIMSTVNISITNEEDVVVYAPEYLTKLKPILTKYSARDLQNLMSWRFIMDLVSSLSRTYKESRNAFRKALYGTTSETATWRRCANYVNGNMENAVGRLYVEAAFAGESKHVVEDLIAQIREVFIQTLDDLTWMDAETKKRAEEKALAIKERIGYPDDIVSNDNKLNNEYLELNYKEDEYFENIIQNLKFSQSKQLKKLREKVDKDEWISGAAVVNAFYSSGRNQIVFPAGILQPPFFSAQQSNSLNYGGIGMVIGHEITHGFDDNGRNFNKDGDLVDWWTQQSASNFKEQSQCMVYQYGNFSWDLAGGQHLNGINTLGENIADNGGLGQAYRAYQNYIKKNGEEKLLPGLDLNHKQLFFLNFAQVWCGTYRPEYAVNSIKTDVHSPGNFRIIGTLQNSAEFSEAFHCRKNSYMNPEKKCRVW

SMILES | pKi | Ki
O=C(N[C@H](Cc1ccc(-c2ccccc2)cc1)CC(O)C(=O)O)c1cnc2[nH]cnc2c1 (stereo partly drawn) [Example 11-9, (R)-5-Biphenyl-4-yl-2-hydroxy-4-[(3H-imidazo[4,5-b]pyridine-6-carbonyl)-amino]-pentanoic acid] |  | 12.6 to 100 nM
O=C(N[C@H](Cc1ccc(-c2cc(Cl)ccc2F)cc1)C[C@@H](O)C(=O)O)c1ccc2nnn(O)c2c1 [Example 22, (2R,4R)-5-(5′-Chloro-2′-fluorobiphenyl-4-yl)-2-hydroxy-4-[(3-hydroxy-3H-benzotriazole-5-carbonyl)-amino]-pentanoic Acid] | ≥9.0 | 
O=C(N[C@H](Cc1ccc(-c2ccccc2)cc1)C[C@@H](O)C(=O)O)c1cc(-c2ccc(Cl)s2)n[nH]1 [Example 15-90, (2R,4R)-5-Biphenyl-4-yl-4-{[5-(5-chlorothiophen-2-yl)-2H-pyrazole-3-carbonyl]-amino}-2-hydroxy-pentanoic acid] | ≥9.0 | 
O=C(N[C@H](Cc1ccc(-c2ccccc2)cc1)CC(O)C(=O)O)c1cc(C(=O)O)n(Cc2ccccc2Cl)n1 (stereo partly drawn) [Example 15-9, 5-((R)-1-Biphenyl-4-ylmethyl-3-carboxy-3-hydroxy-propylcarbamoyl)-2-(2-chlorobenzyl)-2H-pyrazole-3-carboxylic acid] |  | 1.26 to 10 nM
CC(C)(O)c1cc(C(=O)N[C@H](Cc2ccc(-c3ccccc3)cc2)C[C@@H](O)C(=O)O)n[nH]1 [Example 8-B, (2R,4R)-5-Biphenyl-4-yl-2-hydroxy-4-{[5-(1-hydroxy-1-methylethyl)-1H-pyrazole-3-carbonyl]amino}pentanoic acid] | ≥9.0 | 
CCCc1cc(C(=O)N[C@H](Cc2ccc(-c3ccccc3)cc2)CC(O)C(=O)O)[nH]n1 (stereo partly drawn) [Example 15-74, (R)-5-Biphenyl-4-yl-2-hydroxy-4-[(5-propyl-2H-pyrazole-3-carbonyl)amino]-pentanoic acid] |  | 12.6 to 100 nM

Second part, the compound after the results:

pKi | Ki | SMILES
≥9.0 |  | CCOc1cc(C(=O)N[C@H](Cc2ccc(-c3cccc(Cl)c3)cc2)C[C@@H](O)C(=O)O)n[nH]1 [Example 18-40, (2R,4R)-5-(3′-Chloro-biphenyl-4-yl)-4-[(5-ethoxy-1H-pyrazole-3-carbonyl)-amino]-2-hydroxy-pentanoic acid]
≥9.0 |  | O=C(N[C@H](Cc1ccc(-c2cccc(Cl)c2)cc1)C[C@@H](O)C(=O)O)c1cc(-c2ccccc2Cl)on1 [Example 18-15, (2R,4R)-5-(3′-Chlorobiphenyl-4-yl)-4-{[5-(2-chlorophenyl)-isoxazole-3-carbonyl]-amino}-2-hydroxy-pentanoic acid]
 | 1.26 to 10 nM | O=C(N[C@H](Cc1ccc(-c2ccccc2)cc1Cl)C[C@@H](O)C(=O)O)c1cc(-c2ccccn2)n[nH]1 [Example 20-9, (2R,4R)-5-(3-Chloro-biphenyl-4-yl)-2-hydroxy-4-[(5-pyridin-2-yl-2H-pyrazole-3-carbonyl)-amino]-pentanoic acid]
≥9.0 |  | CC(C)(O)c1cc(C(=O)N[C@H](Cc2ccc(-c3cccc(Cl)c3)cc2)C[C@@H](O)C(=O)O)on1 [Example 18-13, (2R,4R)-5-(3′-Chloro-biphenyl-4-yl)-2-hydroxy-4-{[3-(1-hydroxy-1-methyl-ethyl)-isoxazole-5-carbonyl]-amino}-pentanoic acid]
≥9.0 |  | COCc1cc(C(=O)N[C@H](Cc2ccc(-c3cccc(Cl)c3)cc2Cl)C[C@@H](O)C(=O)O)[nH]n1 [Example 21-2, (2R,4R)-5-(3,3′-Dichloro-biphenyl-4-yl)-2-hydroxy-4-[(5-methoxymethyl-2H-pyrazole-3-carbonyl)-amino]-pentanoic acid]
≥9.0 |  | O=C(N[C@H](Cc1ccc(-c2cccc(Cl)c2)cc1)C[C@@H](O)C(=O)O)c1cc(-c2cnccn2)n[nH]1 [Example 18-19, (2R,4R)-5-(3′-Chlorobiphenyl-4-yl)-2-hydroxy-4-[(5-pyrazin-2-yl-2H-pyrazole-3-carbonyl)-amino]-pentanoic acid]
